Laboratory results reported in patent publication US7402548B2, “Benzoxazole compounds, process for producing the same and herbicides” (Kyoyu Agri Co., Ltd., priority 2000, dated 2008).

Assays:
morning glory [1] = assay: Soil treatment test for upland field; type: in vivo, Ipomoea spps.; parameters: key: 0 = normal development, 5 = all killed; details: 500 g/ha, 3 weeks, glass house 25° C.
Experimental: (§1) The herbicidal effects are evaluated according to the following 6 ranks as compared with non-treated district. (0: normal development, 1: Less damaged, 2: Slightly damaged, 3: Moderately damaged, 4: Severely damaged, 5: All killed). Incidentally, “-” in the column means not investigated.
(§2) Wagner pots, each having an area of 1/5000 are, were packed with Ube soil (alluvial soil), and then each seed of corn, soybean, cotton, wheat, solgum, sugar beat, Large crabgrass, barnyard grass, green foxtail, blackgrass, annual bluegrass, common lambsquarters, livid amaranth, velvetleaf, morning glory, common Cocklebur (Xanthium strumarium) and sicklepod (Cassia obtusifolia) were planted and covered with soil.
(§3) Each wettable powder of the desired compounds (I) shown in Tables 1 to 21, 24, 25, 28 and 29 prepared in accordance with Example 2 was diluted with water containing a surfactant (0.05%) and uniformly sprayed on the surface of each soil so that an effective concentration of the compound (I) in each herbicide became 500 g/ha.
(§4) These plants were controlled in a glass house at an average temperature of 25° C. for 3 weeks, and then herbicidal effects thereof were investigated.
(§5) The herbicidal effects were evaluated according to the evaluation method described in the above (1).

morning glory [2] = assay: Foliar spread test for upland field; type: in vivo, Ipomoea spps.; parameters: key: 0 = normal development, 5 = all killed (6 ranks vs. untreated); details: foliar spray, 500 ppm, 3 weeks, glass house 25° C.
Experimental: as §1
(§6) Wagner pots, each having an area of 1/5000 are, were packed with volcanic ash soil and then each seed of corn, soybean, cotton, wheat, solgum, sugar beat, Large crabgrass, barnyardgrjass, green foxtail, blackgrass, annual bluegrass, common lambsquarters, livid amaranth, velvetleaf, morning glory, Xanthium pensylvanicum and Cassia obtusifolia was planted, covered with soil and grown in a glass house at an average temperature of 25° C. for about 2 weeks.
(§7) Each wettable powder of the desired compounds (I) shown in Tables 1 to 21, 24, 25, 28 and 29 prepared in accordance with Example 2 was diluted to 500 ppm with water containing a surfactant (0.5%) and then uniformly sprayed on the above respective plants.
(§8) After these plants were controlled in a glass house at an average temperature of 25° C. for 3 weeks, the herbicidal effects thereof were investigated.
as §5

velvetleaf [3] = assay: Soil treatment test for upland field; type: in vivo, Abutilon theophrasti; parameters: key: 0 = normal development, 5 = all killed; details: 500 g/ha, 3 weeks, glass house 25° C.
Experimental: as §1, §2, §3, §4, §5

barnyard grass = assay: Soil treatment test for upland field; type: in vivo, Eschinochloa crusgalli; parameters: key: 0 = normal development, 5 = all killed; details: 500 g/ha, 3 weeks, glass house 25° C.
Experimental: as §1, §2, §3, §4, §5

common lambsquarters [4] = assay: Soil treatment test for upland field; type: in vivo, Chenopodium album; parameters: key: 0 = normal development, 5 = all killed; details: 500 g/ha, 3 weeks, glass house 25° C.
Experimental: as §1, §2, §3, §4, §5

annual bluegrass [5] = assay: Soil treatment test for upland field; type: in vivo, Poa annua; parameters: key: 0 = normal development, 5 = all killed; details: 500 g/ha, 3 weeks, glass house 25° C.
Experimental: as §1, §2, §3, §4, §5

soybean [6] = assay: Foliar spread test for upland field; type: in vivo; parameters: key: 0 = normal development, 5 = all killed (6 ranks vs. untreated); details: foliar spray, 500 ppm, 3 weeks, glass house 25° C.
Experimental: as §1, §6, §7, §8, §5

corn [7] = assay: Foliar spread test for upland field; type: in vivo; parameters: key: 0 = normal development, 5 = all killed (6 ranks vs. untreated); details: foliar spray, 500 ppm, 3 weeks, glass house 25° C.
Experimental: as §1, §6, §7, §8, §5

solgum [8] = assay: Foliar spread test for upland field; type: in vivo; parameters: key: 0 = normal development, 5 = all killed (6 ranks vs. untreated); details: foliar spray, 500 ppm, 3 weeks, glass house 25° C.
Experimental: as §1, §6, §7, §8, §5

sugar beat [9] = assay: Foliar spread test for upland field; type: in vivo; parameters: key: 0 = normal development, 5 = all killed (6 ranks vs. untreated); details: foliar spray, 500 ppm, 3 weeks, glass house 25° C.
Experimental: as §1, §6, §7, §8, §5

wheat [10] = assay: Foliar spread test for upland field; type: in vivo; parameters: key: 0 = normal development, 5 = all killed (6 ranks vs. untreated); details: foliar spray, 500 ppm, 3 weeks, glass house 25° C.
Experimental: as §1, §6, §7, §8, §5

cotton = assay: Foliar spread test for upland field; type: in vivo; parameters: key: 0 = normal development, 5 = all killed (6 ranks vs. untreated); details: foliar spray, 500 ppm, 3 weeks, glass house 25° C.
Experimental: as §1, §6, §7, §8, §5

velvetleaf [11] = assay: Foliar spread test for upland field; type: in vivo, Abutilon theophrasti; parameters: key: 0 = normal development, 5 = all killed (6 ranks vs. untreated); details: foliar spray, 500 ppm, 3 weeks, glass house 25° C.
Experimental: as §1, §6, §7, §8, §5

blackgrass [12] = assay: Foliar spread test for upland field; type: in vivo, Alopecurus aegualis; parameters: key: 0 = normal development, 5 = all killed (6 ranks vs. untreated); details: foliar spray, 500 ppm, 3 weeks, glass house 25° C.
Experimental: as §1, §6, §7, §8, §5

green foxtail [13] = assay: Soil treatment test for upland field; type: in vivo, Setaria viridis; parameters: key: 0 = normal development, 5 = all killed; details: 500 g/ha, 3 weeks, glass house 25° C.
Experimental: as §1, §2, §3, §4, §5

livid amaranth [14] = assay: Soil treatment test for upland field; type: in vivo, Amaranthus lividus; parameters: key: 0 = normal development, 5 = all killed; details: 500 g/ha, 3 weeks, glass house 25° C.
Experimental: as §1, §2, §3, §4, §5

soybean [15] = assay: Soil treatment test for upland field; type: in vivo; parameters: key: 0 = normal development, 5 = all killed; details: 500 g/ha, 3 weeks, glass house 25° C.
Experimental: as §1, §2, §3, §4, §5

corn [16] = assay: Soil treatment test for upland field; type: in vivo; parameters: key: 0 = normal development, 5 = all killed; details: 500 g/ha, 3 weeks, glass house 25° C.
Experimental: as §1, §2, §3, §4, §5

solgum [17] = assay: Soil treatment test for upland field; type: in vivo; parameters: key: 0 = normal development, 5 = all killed; details: 500 g/ha, 3 weeks, glass house 25° C.
Experimental: as §1, §2, §3, §4, §5

sugar beat [18] = assay: Soil treatment test for upland field; type: in vivo; parameters: key: 0 = normal development, 5 = all killed; details: 500 g/ha, 3 weeks, glass house 25° C.
Experimental: as §1, §2, §3, §4, §5

wheat [19] = assay: Soil treatment test for upland field; type: in vivo; parameters: key: 0 = normal development, 5 = all killed; details: 500 g/ha, 3 weeks, glass house 25° C.
Experimental: as §1, §2, §3, §4, §5

barnyardgrjass = assay: Foliar spread test for upland field; type: in vivo, Eschinochloa crusgalli; parameters: key: 0 = normal development, 5 = all killed (6 ranks vs. untreated); details: foliar spray, 500 ppm, 3 weeks, glass house 25° C.
Experimental: as §1, §6, §7, §8, §5

Large crabgrass [20] = assay: Foliar spread test for upland field; type: in vivo, Digitaria adscendens; parameters: key: 0 = normal development, 5 = all killed (6 ranks vs. untreated); details: foliar spray, 500 ppm, 3 weeks, glass house 25° C.
Experimental: as §1, §6, §7, §8, §5

livid amaranth [21] = assay: Foliar spread test for upland field; type: in vivo, Amaranthus lividus; parameters: key: 0 = normal development, 5 = all killed (6 ranks vs. untreated); details: foliar spray, 500 ppm, 3 weeks, glass house 25° C.
Experimental: as §1, §6, §7, §8, §5

annual bluegrass [22] = assay: Foliar spread test for upland field; type: in vivo, Poa annua; parameters: key: 0 = normal development, 5 = all killed (6 ranks vs. untreated); details: foliar spray, 500 ppm, 3 weeks, glass house 25° C.
Experimental: as §1, §6, §7, §8, §5

green foxtail [23] = assay: Foliar spread test for upland field; type: in vivo, Setaria viridis; parameters: key: 0 = normal development, 5 = all killed (6 ranks vs. untreated); details: foliar spray, 500 ppm, 3 weeks, glass house 25° C.
Experimental: as §1, §6, §7, §8, §5

common lambsquarters [24] = assay: Foliar spread test for upland field; type: in vivo, Chenopodium album; parameters: key: 0 = normal development, 5 = all killed (6 ranks vs. untreated); details: foliar spray, 500 ppm, 3 weeks, glass house 25° C.
Experimental: as §1, §6, §7, §8, §5

Large crabgrass [25] = assay: Soil treatment test for upland field; type: in vivo, Digitaria adscendens; parameters: key: 0 = normal development, 5 = all killed; details: 500 g/ha, 3 weeks, glass house 25° C.
Experimental: as §1, §2, §3, §4, §5

blackgrass [26] = assay: Soil treatment test for upland field; type: in vivo, Alopecurus aegualis; parameters: key: 0 = normal development, 5 = all killed; details: 500 g/ha, 3 weeks, glass house 25° C.
Experimental: as §1, §2, §3, §4, §5

SMILES | Effects Morning glory (morning glory [1]) | Effects Morning glory (morning glory [2]) | Effects Velvetleaf (velvetleaf [3]) | Effects Barnyardgrass (barnyard grass) | Effects Common lambsquarters (common lambsquarters [4]) | Effects Annual bluegrass (annual bluegrass [5]) | Effects Soybean (soybean [6]) | Effects Corn (corn [7]) | Effects Solgum (solgum [8]) | Effects Sugar beat (sugar beat [9]) | Effects Wheat (wheat [10]) | Effects Sotton (cotton) | Effects Velvetleaf (velvetleaf [11]) | Effects Blackgrass (blackgrass [12]) | Effects Green foxtail (green foxtail [13]) | Effects Livid amaranth (livid amaranth [14]) | Effects Soybean (soybean [15]) | Effects Corn (corn [16]) | Effects Solgum (solgum [17]) | Effects Sugar beat (sugar beat [18]) | other results
CC/C(=C\c1cccc(C(F)(F)F)c1)c1nc2cc(Cl)ccc2o1 [I-c-55, (E)-2-(5-chlorobenzoxazol-2-yl)-1-(3-trifluoromethylphenyl)butene] | 5 | 5 | 5 | 5 | 5 | 5 | 5 | 3 | 3 | 5 | 3 | 4 | 4 | 4 | 5 | 5 | 4 | 1 | 1 | 5 | Effects Wheat (wheat [19]): 0; Effects Barnyardgrass (barnyardgrjass): 4; Effects Large crabgrass (Large crabgrass [20]): 4; Effects Livid amaranth (livid amaranth [21]): 4; Effects Annual bluegrass (annual bluegrass [22]): 4; Effects Green foxtail (green foxtail [23]): 5; Effects Common lambsquarters (common lambsquarters [24]): 5; Effects Large crabgrass (Large crabgrass [25]): 5; Effects Blackgrass (blackgrass [26]): 5
CC(=Cc1cccc(C(F)(F)F)c1)c1nc2cc(C#N)c(F)cc2o1 [I-c-135] | 4 | 5 | 5 | 4 | 5 | 5 | 4 | 2 | 3 | 5 | 2 | 4 | 4 | 5 | 5 | 5 | 2 | 1 | 1 | 5 | Effects Wheat (wheat [19]): 1; Effects Barnyardgrass (barnyardgrjass): 3; Effects Large crabgrass (Large crabgrass [20]): 4; Effects Livid amaranth (livid amaranth [21]): 5; Effects Annual bluegrass (annual bluegrass [22]): 5; Effects Green foxtail (green foxtail [23]): 5; Effects Common lambsquarters (common lambsquarters [24]): 5; Effects Large crabgrass (Large crabgrass [25]): 5; Effects Blackgrass (blackgrass [26]): 5
CCCC(=Cc1cccc(C(F)(F)F)c1)c1nc2cc(C(F)(F)F)ccc2o1 [I-c-88] | 5 | 5 | 5 | 5 | 5 | 5 | 5 | 4 | 3 | 5 | 2 | 5 | 4 | 5 | 5 | 5 | 5 | 3 | 4 | 5 | Effects Wheat (wheat [19]): 2; Effects Barnyardgrass (barnyardgrjass): 2; Effects Large crabgrass (Large crabgrass [20]): 4; Effects Livid amaranth (livid amaranth [21]): 5; Effects Annual bluegrass (annual bluegrass [22]): 4; Effects Green foxtail (green foxtail [23]): 5; Effects Common lambsquarters (common lambsquarters [24]): 5; Effects Large crabgrass (Large crabgrass [25]): 5; Effects Blackgrass (blackgrass [26]): 5
CCC(=Cc1cccc(C(F)(F)F)c1)c1nc2cc([N+](=O)[O-])ccc2o1 [I-c-72] | 4 | 5 | 5 | 5 | 5 | 5 | 5 | 3 | 3 | 4 | 2 | 4 | 3 | 3 | 5 | 5 | 5 | 2 | 3 | 5 | Effects Wheat (wheat [19]): 2; Effects Barnyardgrass (barnyardgrjass): 3; Effects Large crabgrass (Large crabgrass [20]): 4; Effects Livid amaranth (livid amaranth [21]): 5; Effects Annual bluegrass (annual bluegrass [22]): 4; Effects Green foxtail (green foxtail [23]): 4; Effects Common lambsquarters (common lambsquarters [24]): 5; Effects Large crabgrass (Large crabgrass [25]): 5; Effects Blackgrass (blackgrass [26]): 5
CCC(=Cc1cccc(C(F)(F)F)c1)c1nc2cc(Cl)c(C)cc2o1 [I-c-131] | 5 | 5 | 5 | 5 | 5 | 5 | 5 | 3 | 2 | 4 | 2 | 5 | 4 | 4 | 5 | 5 | 1 | 1 | 3 | 5 | Effects Wheat (wheat [19]): 1; Effects Barnyardgrass (barnyardgrjass): 3; Effects Large crabgrass (Large crabgrass [20]): 4; Effects Livid amaranth (livid amaranth [21]): 5; Effects Annual bluegrass (annual bluegrass [22]): 4; Effects Green foxtail (green foxtail [23]): 4; Effects Common lambsquarters (common lambsquarters [24]): 5; Effects Large crabgrass (Large crabgrass [25]): 5; Effects Blackgrass (blackgrass [26]): 5
